Assay results taken from PubChem BioAssay AID2060887 (Molecular Pharmacology Branch, DTP, NCI, 2025).
Several values for one entry are separate records, joined by “and”; a condition that tells them apart may be missing. Equal values may be shown once.

Test system: 782815-120-R-J1-PDC complex spheroid viability
Test: Anticancer human tumor 782815-120-R-J1-PDC patient-derived colon adenocarcinoma cell line growth inhibition [RAS]
Settings: for viability, T/C: stronger effect = lower value
Text: RAS pathway inhibitors in Combinations in Complex Spheroids
A high-throughput screen of multi-cell type tumor spheroids was designed to identify active combinations of RAS pathway inhibitors and targeted small molecules. Complex spheroids include a stromal component modeled by human endothelial cells (HUVEC) and fibroblasts modeled by human mesenchymal stem cells (MSCs). The concentration ranges selected for each drug and investigational agent were based upon clinically achievable concentrations if the clinical Cmax of the agent was known.
Compounds. The drugs and investigational agents: abemaciclib (NSC768073), cobimetinib (NSC768068), divarasib (GDC6063, NSC841802), docetaxel (NSC628503), GDC-1971 (RLY-1971, NSC841576), gemcitabine (NSC613327), inavolisib (NSC800729), ipatasertib (NSC767898), KB-0742 (NSC834161), MRTX-1133 (NSC836407), osimertinib (NSC779217), RMC-4630 (NSC839698), RMC-6236 (NSC851965), RMC-6291 (NSC852671), Ro-3306 (NSC812927), sapanisertib (NSC764658), SN-38 (NSC673596), staurosporine (NSC755774), SY5609 (NSC837396), and tovorafenib (DAY101, NSC766906), were obtained from the National Cancer Institute (NCI) Developmental Therapeutics Program Chemical Repository. The FDA-approved anticancer drug set is available from the NCI Developmental Therapeutics Program. […] The stock solutions were prepared in dimethyl sulfoxide (DMSO, Sigma-Aldrich, St. Louis, MO, cat. D2650) at 800-fold the tested concentration and stored at -70 degrees C prior to their use. All drugs and investigational agents were tested over a range starting from a high concentration at or near the clinical Cmax and decreasing in half-log increments. If the clinical Cmax for an agent had not been determined, the highest concentration tested was 10 microM.
Cell Culture. All cells were maintained in an incubator at 37 degrees C and 5% CO2 with 95% humidity. The PDC lines were cultured according to standard operating procedures established by the NCI PDMR. All PDCs were thawed and cultured in Matrigel-coated flasks prepared with a working solution of 1X Ham's F-12 nutrient mix, without supplementation (Invitrogen, Waltham, MA, cat. 11765054), 100 U/mL penicillin-streptomycin (Invitrogen, cat. 15140122), and 2.5% Matrigel (Corning Inc., Corning, NY, cat. 354248) for the first three passages. The 362531-283-R-J2-PDC and 782815-120-R-J1-PDC lines were cultured in 6C/Colon 1B media, which includes advanced DMEM/F-12 (Thermo Fisher Scientific, cat. 12634028), 10 mM HEPES (Thermo Fisher Scientific, cat. 15630080), 1X GlutaMAX supplement (Thermo Fisher Scientific, cat. 35050061), 0.1 mg/mL primocin (InvivoGen, San Diego, CA, cat. ant-pm-2), 10% defined fetal bovine serum, heat inactivated (HyClone Laboratories Inc., Logan, UT, cat. SH30070.03HI), 50% L-WRN conditioned media (ATCC, cat. CRL-3276), 1.25 mM N-Acetyl-L-cysteine (Sigma-Aldrich, cat. A9165), 10 mM nicotinamide (Sigma-Aldrich, cat. N0636), 1X B-27 supplement (Thermo Fisher Scientific, cat. 17504044), 1X N-2 supplement (Thermo Fisher Scientific, cat. 17502048), 50 ng/mL human EGF (Thermo Fisher Scientific, cat. PHG0311), and 10 microM Y-27632 dihydrochloride (Tocris Bioscience, cat. 1254). The K12877-001-R-J1-PDC line was cultured in 6I media, which includes all 6C/Colon 1B media plus 10 ng/mL human FGF-10 (PeproTech, cat. 100-26), 1 ng/mL human FGF-2 (PeproTech, cat. 100-18B), 1 µM prostaglandin E2 (Tocris Bioscience, cat. 2296), […] hydrocortisone (Sigma-Aldrich, cat. H4001), and […] bovine insulin (Sigma-Aldrich, cat. I6634). The K86415-001-R-J1-PDC line was cultured in 6D media, which includes all 6C/Colon 1B media components minus the L-WRN conditioned media. The 485176-168-R4-J1-PDC was cultured in PANC media, which includes all 6C/Colon 1B media plus 100 ng/mL human FGF-10 (PeproTech, cat. 100-26), 500 nM SB-431542 (Selleckchem, cat. S1067), and 10 nM gastrin (Tocris Bioscience, cat. 3006). […]
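Note: spheroids exposed to compounds for 7 days before reading.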
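Throughout, for viability, T/C: 100% = DMSO vehicle control viability.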

In the case of `CC(=O)OC12COC1CC(O)C1(C)C(=O)C(O)C3=C(C)C(OC(=O)C(O)C(NC(=O)OC(C)(C)C)c4ccccc4)CC(O)(C(OC(=O)c4ccccc4)C21)C3(C)C` (stereo not drawn), the viability, T/C (compound 0.0316 µM) is reported as 35% [middle of 4 runs], the viability, T/C (compound 0.1 µM) is reported as 33.6% [middle of 4 runs] and the viability, T/C (compound 0.316 µM) is reported as 25.9% [middle of 4 runs]. For the same molecule, the viability, T/C (compound 1 µM) was 27.1% [middle of 4 runs], the viability, T/C (compound 3.16 µM) was 27.9% [middle of 4 runs] and the viability, T/C (compound 10 µM) was 33.1% [middle of 4 runs]. The IC50 (curve of compound) was under 0.0316 µM.
`Cc1nc(N2CCC3(CC2)COC(C)C3N)c(CO)nc1Sc1ccnc(N)c1Cl` (stereo not drawn) was tested, and the viability, T/C (compound 0.0316 µM) was 96.6% [middle of 4 runs], the viability, T/C (compound 0.1 µM) was 99.8% [middle of 4 runs] and the viability, T/C (compound 0.316 µM) was 93.7% [middle of 4 runs]. The viability, T/C (compound 1 µM) was 94.7% [middle of 4 runs], the viability, T/C (compound 3.16 µM) was 98.3% [middle of 4 runs] and the viability, T/C (compound 10 µM) was 104% [middle of 4 runs]. For the same molecule, the IC50 (curve of compound) was over 10 µM.
With `NC1c2ccccc2OC12CCN(c1cnc3c(N4CCCc5ncccc54)n[nH]c3n1)CC2` (stereo not drawn) the viability, T/C (compound 0.0316 µM) was 99% [middle of 4 runs], the viability, T/C (compound 0.1 µM) was 96.6% [middle of 4 runs] and the viability, T/C (compound 0.316 µM) was 104% [middle of 4 runs]. For the same molecule, the viability, T/C (compound 1 µM) was 95% [middle of 4 runs], the viability, T/C (compound 3.16 µM) was 102% and 94.6% and 99.8% (2×) and the viability, T/C (compound 10 µM) was 86.9% [middle of 4 runs]. For the same molecule, the IC50 (curve of compound) was over 10 µM.
Molecule `C=CC(=O)Nc1cc(Nc2nccc(-c3cn(C)c4ccccc34)n2)c(OC)cc1N(C)CCN(C)C` + C#Cc1c(F)ccc2cc(O)cc(-c3ncc4c(N5CC6CCC(C5)N6)nc(OCC56CCCN5CC(F)C6)nc4c3F)c12 has an IC50 (curve of first compound, second compound 0.0316 µM) of over 1 µM, an IC50 (curve of first compound, second compound 0.1 µM) of over 1 µM and an IC50 (curve of first compound, second compound 0.316 µM) of over 1 µM. The IC50 (curve of first compound, second compound 1 µM) was over 1 µM, the IC50 (curve of first compound, second compound 3.16 µM) was over 1 µM and the IC50 (curve of first compound, second compound 10 µM) was over 1 µM. The viability, T/C (second compound 0.0316 µM, first compound 0.00316 µM) was 99.3%, the viability, T/C (second compound 0.0316 µM, first compound 0.01 µM) was 93.8% and the viability, T/C (second compound 0.0316 µM, first compound 0.0316 µM) was 101%. For the same molecule, the viability, T/C (second compound 0.0316 µM, first compound 0.1 µM) was 97.2%, the viability, T/C (second compound 0.0316 µM, first compound 0.316 µM) was 98.9% and the viability, T/C (second compound 0.0316 µM, first compound 1 µM) was 93.6%. The viability, T/C (second compound 0.1 µM, first compound 0.00316 µM) was 103%, the viability, T/C (second compound 0.1 µM, first compound 0.01 µM) was 97.2% and the viability, T/C (second compound 0.1 µM, first compound 0.0316 µM) was 97.5%. For the same molecule, the viability, T/C (second compound 0.1 µM, first compound 0.1 µM) was 93.6%, the viability, T/C (second compound 0.1 µM, first compound 0.316 µM) was 101% and the viability, T/C (second compound 0.1 µM, first compound 1 µM) was 89.5%. The viability, T/C (second compound 0.316 µM, first compound 0.00316 µM) was 98.2%, the viability, T/C (second compound 0.316 µM, first compound 0.01 µM) was 94.3% and the viability, T/C (second compound 0.316 µM, first compound 0.0316 µM) was 105%. The viability, T/C (second compound 0.316 µM, first compound 0.1 µM) was 89%, the viability, T/C (second compound 0.316 µM, first compound 0.316 µM) was 95% and the viability, T/C (second compound 0.316 µM, first compound 1 µM) was 101%. For the same molecule, the viability, T/C (second compound 1 µM, first compound 0.00316 µM) was 95.5%, the viability, T/C (second compound 1 µM, first compound 0.01 µM) was 96% and the viability, T/C (second compound 1 µM, first compound 0.0316 µM) was 101%. It also gave a viability, T/C (second compound 1 µM, first compound 0.1 µM) of 92.4%, a viability, T/C (second compound 1 µM, first compound 0.316 µM) of 100% and a viability, T/C (second compound 1 µM, first compound 1 µM) of 101%. It also gave a viability, T/C (second compound 3.16 µM, first compound 0.00316 µM) of 99.9%, a viability, T/C (second compound 3.16 µM, first compound 0.01 µM) of 101% and a viability, T/C (second compound 3.16 µM, first compound 0.0316 µM) of 98.4%. It also gave a viability, T/C (second compound 3.16 µM, first compound 0.1 µM) of 94.4%, a viability, T/C (second compound 3.16 µM, first compound 0.316 µM) of 97% and a viability, T/C (second compound 3.16 µM, first compound 1 µM) of 95.8%. It also gave a viability, T/C (second compound 10 µM, first compound 0.00316 µM) of 100%, a viability, T/C (second compound 10 µM, first compound 0.01 µM) of 91.7% and a viability, T/C (second compound 10 µM, first compound 0.0316 µM) of 110%. The viability, T/C (second compound 10 µM, first compound 0.1 µM) was 101%, the viability, T/C (second compound 10 µM, first compound 0.316 µM) was 94.4% and the viability, T/C (second compound 10 µM, first compound 1 µM) was 91.7%.
